We go through eleven compounds from publication PMC10610016, “New Hybrid Compounds Incorporating Natural Products as Multifunctional Agents against Alzheimer’s Disease” (Pharmaceutics, 2023).

Where “and” joins values, the source holds several entries; their conditions need not be identical. Identical values can stand only once.

Data set [1] is described as follows: UV–Vis metal binding study, Cu2+ (mole ratio method). It is filed as physicochemical. The settings on record: for stoichiometry for the Cu2+–ligand complex (molar fraction analysis): ligand 20 µM, Cu2+ 0 to 80 µM; for shift in UV spectrum in the presence of Cu2+ (first screening): ligand 20 μM, Cu2+ 80 µM, MeOH. The protocol: The synthesized compounds were tested for their metal chelating effect through spectroscopic measurements. The UV–Vis absorbance of compounds was recorded in the absence and presence of metal ions using a UV–Vis spectrometer (a SPECTROstarNano (220–1000 nm), Ortenberg, Germany. The experiment was performed in 96-well plates and each experiment was made in triplicates. A fixed amount of investigated ligand (20 μM) solubilized in MeOH was mixed with increasing concentration of Cu^2+ (CuCl2), Fe^2+ (FeSO4) and Zn^2+ (ZnCl2) from 0 to 80 μM and incubated for 30 min at room temperature (r.t.). The absorbance change was monitored at wavelengths ranging from 220 to 700 nm. The stoichiometry of studied compounds for Cu^2+ and Fe^2+ complexes was determined by employing the mole ratio method.

A short description of data set [2]: DPPH radical scavenging assay. It is filed as biochemical. The following applies: for %AA (percentage of antioxidant activity), DPPH: compound 100 µM, DPPH 60 µM in MeOH, 1 h. On the procedure:
The DPPH assay was carried out in a 96-microwell plate according to a previously described protocol. In brief, DPPH solution (60 µM in MeOH) was added to studied compounds or MeOH as the control. The 96-microwell plate was incubated (in the dark, at r.t. for 1 h) and the absorbance values were read at 517 nm by a SPECTROstarNano (220–1000 nm) UV–Vis spectrophotometer, Ortenberg, Germany. During the first screening, all compounds were tested ad 100 µM, then for compounds 2a–c the EC50 (effective concentration), the concentration of substrate that causes a 50% reduction in the DPPH colour, was calculated.
All experiments were made in triplicate. The percentage of the antioxidant activity (%AA) of the compounds was determined according to Equation (1):%AA = ((AbsDPPH − Abssample)/AbsDPPH) × 100(1)
AbsDPPH is the absorbance of DPPH solution, and Abssample is the absorbance of DPPH solution containing the tested compound.
Each concentration was tested in triplicate and the EC50 value was reported as the mean ± the standard error of the mean (SEM) of three independent experiments.

A short description of data set [3]: ABTS assay. It is filed as biochemical. The following applies: for radical scavenger / antioxidant activity, ABTS: compound 100 µM. On the procedure:
The ABTS assay was performed according to the methods reported in literature. Briefly, 7 mM of ABTS was mixed with 2.45 mM of K2S2O8 solution, ratio 1:1, in 10 mM phosphate buffer (pH 7.4). The mixture was incubated in a dark box at r.t. for 12 h, then the stock solution was diluted until the absorbance was 0.70 ± 0.02 at 734 nm.
In a 96-well plate, 190 µL ABTS working solution and 10 µL sample solution (compounds 2a–c, 3a–c at concentration of 100 μM) were mixed and the absorbance was measured (734 nm) using a SPECTROstarNano (220–1000 nm) UV–Vis spectrophotometer, Ortenberg, Germany. Then, for compounds 2a–c the EC50 was calculated and the values were expressed in TEAC equivalents. Each concentration was tested in triplicate and the EC50 was reported as the mean ± SEM of three independent experiments.

The nature of data set [4]: Colorimetric Cu2+ chelation with pyrocatechol violet (PV). The class given is physicochemical. The settings on record: compound 200 µM, CuSO4 200 µM, PV 200 µM. The protocol:
(§1) Due to a non-measurable UV absorbance for compounds 4a and 5c, a different protocol using pyrocatechol violet (PV) was applied. The compounds (200 µM) incubated for 10 min with CuSO4 (200 µM), after 200 µM PV was added and the plate was incubated at 25 °C for 20 min. The absorption spectra were recorded. The same protocol was used for Fe^2+ (FeSO4) in presence of ferrozine.

Data set [5] can be described thus: Colorimetric Fe2+ chelation with ferrozine. It is filed as physicochemical. The following applies: FeSO4, ferrozine. The protocol: as §1
Setting [6] is: mean ± SEM of three independent experiments.

On to `O=C(C=Cc1ccccc1)NOCc1ccccc1C(F)(F)F` [Compound 1a, N-((2-(trifluoromethyl)benzyl)oxy)cinnamamide], for which the melting point – broadly, the temperature of the solid-liquid transition – lay within 91 to 93 °C. Moreover, in data set [1], the “stoichiometry for the Cu2+–ligand complex (molar fraction analysis)” value was 1.0 and the “shift in UV spectrum in the presence of Cu2+ (first screening)” value is “significant shift”.
`O=C(C=Cc1ccccc1)NOCc1cccc(C(F)(F)F)c1` [Compound 1b, N-((3-(trifluoromethyl)benzyl)oxy)cinnamamide] returned a melting point of 91 to 93 °C.
For the compound `O=C(C=Cc1ccccc1)NOCc1ccc(C(F)(F)F)cc1` [Compound 1c, N-((4(trifluoromethyl)benzyl)oxy)cinnamamide], the melting point lay in the range of 148 to 150 °C.
Consider `O=C(/C=C/c1ccc(O)c(O)c1)NOCc1ccc(C(F)(F)F)cc1` [Compound 2c], for which the melting point lay in the range of 188 to 190 °C. Further, the “%AA (percentage of antioxidant activity), DPPH” value in data set [2] was 96% and 58%. Moreover, in data set [2] (setting [6]), the EC50 – broadly, the concentration at which the effect is half-maximal – turned out to be 6 ± 0.1 µM and the “TEAC (Trolox equivalent antioxidant capacity), DPPH” value was determined as 10.4 ± 0.4 µM. For the same compound, the “radical scavenger / antioxidant activity, ABTS” value in data set [3] is given as 97.3%. In addition, in data set [3] (setting [6]), a half-maximal effect (EC50) was put at 22.9 ± 0.5 µM and the “TEAC, ABTS” value turned out to be 11.8 ± 0.02 µM.
With `O=C(/C=C/c1ccc(O)cc1O)NOCc1ccccc1C(F)(F)F` [Compound 3a, (E)-3-(2,4-dihydroxyphenyl)-N-((2-(trifluoromethyl)benzyl)oxy)acrylamide], the melting point is 165 to 167 °C. For the same compound, the “%AA (percentage of antioxidant activity), DPPH” value in data set [2] came to 59%. In data set [3], the “radical scavenger / antioxidant activity, ABTS” value is given as 68%. Also, in data set [1], the “stoichiometry for the Cu2+–ligand complex (molar fraction analysis)” value is recorded as “around 2” and the “shift in UV spectrum in the presence of Cu2+ (first screening)” value is “significant shift”.
Take `O=C(/C=C/c1ccc(O)cc1O)NOCc1cccc(C(F)(F)F)c1` [Compound 3b, (E)-3-(2,4-dihydroxyphenyl)-N-((3-(trifluoromethyl)benzyl)oxy)acrylamide]: the melting point lay within 157 to 158 °C. Moreover, in data set [2], the “%AA (percentage of antioxidant activity), DPPH” value stood at 60%. Also, the “radical scavenger / antioxidant activity, ABTS” value in data set [3] was determined as 67%.
In the case of `O=C(/C=C/c1ccc(O)cc1O)NOCc1ccc(C(F)(F)F)cc1` [Compound 3c, (E)-3-(2,4-dihydroxyphenyl)-N-((4-(trifluoromethyl)benzyl)oxy)acrylamide], the melting point is 176 to 178 °C. The “radical scavenger / antioxidant activity, ABTS” value in data set [3] was 65%.
On to `CCCC(CCC)C(=O)NOCc1ccccc1C(F)(F)F` [Compound 4a, 2-propyl-N-((2-(trifluoromethyl)benzyl)oxy)pentanamide], for which the melting point lay within 73 to 75 °C. Besides, the “interaction with Cu2+, colorimetric method with PV” value in data set [4] is given as “slight shift”. For the same compound, the “interaction with Fe2+, colorimetric method with ferrozine” value in data set [5] was “No interaction”.
`CCCC(CCC)C(=O)NOCc1cccc(C(F)(F)F)c1` [Compound 4b, 2-propyl-N-((3-(trifluoromethyl)benzyl)oxy)pentanamide] displayed a melting point of 74 to 76 °C.
On to `CCCC(CCC)C(=O)NOCc1ccc(C(F)(F)F)cc1` [Compound 4c, 2-propyl-N-((4-(trifluoromethyl)benzyl)oxy)pentanamide], for which the melting point lay within 78 to 80 °C.
Take `O=C(CCCC[C@@H]1CCSS1)NOCc1ccccc1C(F)(F)F` [Compound 5a, (R)-5-(1,2-dithiolan-3-yl)-N-((2-(trifluoromethyl)benzyl)oxy)pentanamide]: in data set [4], the “interaction with Cu2+, colorimetric method with PV” value is given as “slight shift”. For the same compound, in data set [5], the “interaction with Fe2+, colorimetric method with ferrozine” value is reported as “No interaction”.
